Experimental data: patent US9365633B2, “Peptide preparations and peptides with antitumour activity” (Instytut Medycyny Doswiadczalnej I Klinicznej Pan, priority 2010, dated 2016)

Tested on: melanoma cells of the line MeW 155
Test: Effect of synthetic peptides on proliferation of melanoma cells, 3 day culture in 96-well plate
Type: cell-based
Settings: 3 days of culture; for cell numbers, % of the control: 4000 cells per well; for toxicity to MeW 155 melanoma cells: MeW 155, 0.1 mM
Experimental: The synthetic peptides were examined for their effect on the proliferation of melanoma cells of the line MeW 155. The culture was maintained under standard conditions for 3 days with 4000 cells per well of a 96-well culture plate. After three days, the numbers of cells in the control group increased to 120 000. It turned out that after 3 days of culture, peptide 91 at a concentration of 0.004 mM decreased cell numbers to 55% of the control, and a 0.02 mM concentration decreased the cells to 35%, whereas 0.1 mM was toxic to MeW 155 cells. Peptide 92 at 0.004 mM decreased the number of tumour cells to 65% of the control, a 0.02 mMol concentration decreased the number of cells to 49%, and a concentration of 0.1 mM was toxic to melanoma cells.

| Sequence | cell numbers, % of the control (MeW 155, 0.004 mM) [%] | cell numbers, % of the control (MeW 155, 0.02 mM) [%] | toxicity to MeW 155 melanoma cells |
| --- | --- | --- | --- |
| YRPWGSGSGFG [peptide 91] | 55 | 35 | toxic |
| YRPWGSGSGF [compound 92] | 65 | 49 | toxic |
